Experimental data as given in patent US6797824B2, “Certain 4-aminomethyl-2-substituted imidazole derivatives and 2-aminomethyl-4-substituted imidazole derivatives; new classes of dopamine receptor subtype specific ligands” (Neurogen Corporation, priority 1990, dated 2004).
Structures can show the parent of a compound that is named as a salt.

Assays:
[1] = target: T1, human dopamine D4 receptor subtype (Homo sapiens, UniProt P21917); experiment: D4 receptor binding, displacement of [3H]YM-09151-2
T1 construct: expressed in transfected cells
T1 sequence (P21917 1-419): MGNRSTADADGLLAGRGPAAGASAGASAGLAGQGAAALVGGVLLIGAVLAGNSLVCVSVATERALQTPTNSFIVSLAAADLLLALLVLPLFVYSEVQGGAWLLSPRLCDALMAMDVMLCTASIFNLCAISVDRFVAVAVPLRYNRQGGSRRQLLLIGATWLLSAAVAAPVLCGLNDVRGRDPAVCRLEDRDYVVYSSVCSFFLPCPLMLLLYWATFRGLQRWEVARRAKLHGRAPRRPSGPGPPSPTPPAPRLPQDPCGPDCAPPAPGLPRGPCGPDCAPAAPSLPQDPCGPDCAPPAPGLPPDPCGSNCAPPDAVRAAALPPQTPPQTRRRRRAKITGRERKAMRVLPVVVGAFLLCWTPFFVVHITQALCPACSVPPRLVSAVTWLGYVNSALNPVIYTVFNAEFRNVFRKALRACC
Protocol: Assay for D4 Receptor Binding Activity
Clonal cell lines expressing the human dopamine D4 receptor subtype were harvested in PBS and the cells centrifuged and the pellets stored at −80° C. until used in the binding assay. […] The homogenate is centrifuged at 48000×g for 10 minutes at 4° C. The resulting pellet is resuspended in fresh buffer and centrifuged again. After resuspension of the pellet in fresh buffer at […] aliquot is removed for protein determination. […] Incubations were carried out for 60 minutes at 25° C. in the presence of 0.1 nM [^3H] […] Non-specific binding was determined with 1 mM spiperone and radioactivity determined by counting in an LKB beta counter. Binding parameters were determined by non-linear least squares regression analysis, from which the inhibition constant (ki) could be calculated for each test compound.

[2] = test system: male Sprague Dawley rats (learning and memory); experiment: Step-down passive avoidance task; type: in vivo, rat
Protocol: Non-naive male Sprague Dawley rats (SASCO St. Louis) weighing between 2000-300 grams, were housed in groups of three in a temperature and humidity controlled vivarium having a 12 hour light/dark cycle. Animals had ad lib access to food and water.
Both drugs were administered intravenously 5 minutes prior to training in both learning tasks.
Step-Down Passive Avoidance: A step-down passive avoidance platform 4 (cm)×7 (cm) was placed in the center of an electrified gris floor, which was contained within a large (45×45×50 cm) white translucent plexiglas enclosure having a closable lid. The bars of the grip were spaced 1.5 cm apart and were wired to a BRS-LVE shock generator/scrambler which was set to deliver a 2 mA 6 second shock. Four passive avoidance boxes were automated by customer software (Labview) and commercial interface modules (National Instruments) connected to a computer. The timing and delivery of the shock as well as the latency to steo down and the number of trials taken to reach criterion during raining was under the control of the computer. All testing was done in the presence of 62 db white noise. […]
Retention Testing: Testing was conduced approximately 24 hours after training, Drug-free animals were placed on the platform in the box in which they were trained and the latency to step down onto the unshocked floor was recorded for one trial. […]

[3] = target: T2, dopamine D4 receptors in rat hippocampus (Rattus norvegicus, UniProt P30729); experiment: Binding to D4 receptors in rat hippocampus
T2 construct: from tissue; host or cells: rat hippocampus (from the head of the results)
T2 sequence (P30729 1-387): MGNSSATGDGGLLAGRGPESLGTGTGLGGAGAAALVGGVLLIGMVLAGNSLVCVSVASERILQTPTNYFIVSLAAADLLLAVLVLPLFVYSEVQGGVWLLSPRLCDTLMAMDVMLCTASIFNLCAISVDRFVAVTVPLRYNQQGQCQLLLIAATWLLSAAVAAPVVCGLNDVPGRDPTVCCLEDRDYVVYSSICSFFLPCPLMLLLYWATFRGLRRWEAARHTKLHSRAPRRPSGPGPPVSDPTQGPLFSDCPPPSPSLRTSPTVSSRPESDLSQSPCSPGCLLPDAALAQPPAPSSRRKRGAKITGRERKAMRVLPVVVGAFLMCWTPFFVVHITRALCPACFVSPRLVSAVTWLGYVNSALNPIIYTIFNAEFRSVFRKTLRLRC

[4] = target: T3, dopamine D4 receptors in human hippocampus (Homo sapiens, UniProt P21917); experiment: Binding to D4 receptors in human hippocampus
T3 construct: from tissue; host or cells: human hippocampus (from the head of the results)
T3 sequence (P21917 1-419): T1 sequence (P21917 1-419)

| Structure (SMILES) | Ki [1] [nM] | passive avoidance retention: time on platform during retest vs vehicle ([2]; 0.25 mg/kg i.v., retest about 24 h after training) | passive avoidance acquisition vs vehicle group ([2]; 0.03-1.0 mg/kg i.v. 5 min prior to training) | binding to dopamine D4 receptors, functional type [3] | binding to dopamine D4 receptors, functional type [4] |
| --- | --- | --- | --- | --- | --- |
| c1ccc(-c2ncc(CN3CCN(c4ncccn4)CC3)[nH]2)cc1 [Compound 23, 2-Phenyl-4(5)-[(4-(2-pyrimidinyl)-piperazin-1-yl)methyl]-imidazole dihydrochloride] | 2.7 | significantly longer time | no significant differences | antagonists binding to dopamine D4 receptors | antagonists binding to dopamine D4 receptors |
| c1ccc(-c2ncc(CN3CCN(c4ccccc4)CC3)[nH]2)cc1 [Compound 45, 2-Phenyl-4(5)-[(4-phenyl-piperazin-1-yl)methyl]-imidazole] | 5 | – | – | antagonists binding to dopamine D4 receptors | antagonists binding to dopamine D4 receptors |
